Laboratory results taken from ChEMBL document CHEMBL3885881, “DrugMatrix”.

Species on record: Rattus norvegicus
Test: DrugMatrix - Regimen: Daily Repeat
Format: toxicity, organism-based, Sprague-Dawley
Set-up: regimen Daily Repeat, gender Male, age 6-8 weeks
Details: in vivo, po, route oral GAVAGE, vehicle 100 % WATER; for ABSOLUTE BASOPHIL / ABSOLUTE EOSINOPHIL / ABSOLUTE LYMPHOCYTE / ABSOLUTE MONOCYTE / ABSOLUTE SEGMENTED NEUTROPHIL / BASOPHIL / EOSINOPHIL / ERYTHROCYTE COUNT / HEMATOCRIT / HEMOGLOBIN / LEUKOCYTE COUNT / LYMPHOCYTE / MEAN CORPUSCULAR HEMOGLOBIN / MEAN CORPUSCULAR HEMOGLOBIN CONCENTRATION / MEAN CORPUSCULAR VOLUME / MONOCYTE / NEUTROPHIL / NUCLEATED RED BLOOD CELLS / PLATELET COUNT: tissue Blood; for ALANINE AMINOTRANSFERASE / ALKALINE PHOSPHATASE / ASPARTATE AMINOTRANSFERASE / BLOOD UREA NITROGEN / CARBON DIOXIDE / CHLORIDE / CHOLESTEROL / CREATINE PHOSPHOKINASE / CREATININE / GLUCOSE / LACTATE DEHYDROGENASE / LIPASE / PHOSPHORUS / POTASSIUM / SODIUM / TOTAL BILIRUBIN / TOTAL PROTEIN / URIC ACID: tissue Plasma
[1] = 22 mg/kg, 120 h, dose level Low, time 5 day
[2] = 320 mg/kg, 72 h, dose level High, time 3 day
[3] = 320 mg/kg, 120 h, dose level High, time 5 day

For `COc1ccc(C(CN(C)C)C2(O)CCCCC2)cc1` (stereo unspecified) [VENLAFAXINE], the “ABSOLUTE BASOPHIL” value [1] was 0 CELLS/uL, the “ABSOLUTE EOSINOPHIL” value [1] was 0 CELLS/uL and the “ABSOLUTE LYMPHOCYTE” value [1] was 7105.33 CELLS/uL. For the same compound, the “ABSOLUTE MONOCYTE” value [1] was 102.33 CELLS/uL, the “ABSOLUTE SEGMENTED NEUTROPHIL” value [1] was 692.33 CELLS/uL and the BASOPHIL [1] was 0%. For the same compound, the EOSINOPHIL [1] was 0%, the “ERYTHROCYTE COUNT” value [1] was 5.16 x10E6/uL and the HEMATOCRIT [1] was 32.4%. The HEMOGLOBIN [1] was 12.8 G/DL, the “LEUKOCYTE COUNT” value [1] was 7.9 x10E3/uL and the LYMPHOCYTE [1] was 90%. The “MEAN CORPUSCULAR HEMOGLOBIN” value [1] was 24.83 pg, the “MEAN CORPUSCULAR HEMOGLOBIN CONCENTRATION” value [1] was 39.5 G/DL and the “MEAN CORPUSCULAR VOLUME” value [1] was 62.73 fL. The MONOCYTE [1] was 1.33%, the NEUTROPHIL [1] was 8.67% and the “NUCLEATED RED BLOOD CELLS” value [1] was 0 /100WBC. The “PLATELET COUNT” value [1] was 1242 x10E3/uL, the “ALANINE AMINOTRANSFERASE” value [1] was 58.67 u/L and the “ALKALINE PHOSPHATASE” value [1] was 353 u/L. For the same compound, the “ASPARTATE AMINOTRANSFERASE” value [1] was 97.67 u/L, the “BLOOD UREA NITROGEN” value [1] was 15 mg/dL and the “CARBON DIOXIDE” value [1] was 29 mmol/L. For the same compound, the CHLORIDE [1] was 106 MEQ/L, the CHOLESTEROL [1] was 81 mg/dL and the “CREATINE PHOSPHOKINASE” value [1] was 155 u/L. The CREATININE [1] was 0.18 mg/dL, the GLUCOSE [1] was 132.33 mg/dL and the “LACTATE DEHYDROGENASE” value [1] was 132 u/L. For the same compound, the LIPASE [1] was 9.67 u/L, the PHOSPHORUS [1] was 11.27 mg/dL and the POTASSIUM [1] was 6.7 MEQ/L. The SODIUM [1] was 152.17 MEQ/L, the “TOTAL BILIRUBIN” value [1] was 0.17 mg/dL and the “TOTAL PROTEIN” value [1] was 6.63 G/DL. The “URIC ACID” value [1] was 1.17 mg/dL, the “ABSOLUTE BASOPHIL” value [2] was 0 CELLS/uL and the “ABSOLUTE EOSINOPHIL” value [2] was 0 CELLS/uL. For the same compound, the “ABSOLUTE LYMPHOCYTE” value [2] was 16169.33 CELLS/uL, the “ABSOLUTE MONOCYTE” value [2] was 308 CELLS/uL and the “ABSOLUTE SEGMENTED NEUTROPHIL” value [2] was 1489.33 CELLS/uL. For the same compound, the BASOPHIL [2] was 0%, the EOSINOPHIL [2] was 0% and the “ERYTHROCYTE COUNT” value [2] was 5.59 x10E6/uL. For the same compound, the HEMATOCRIT [2] was 35.1%, the HEMOGLOBIN [2] was 13.63 G/DL and the “LEUKOCYTE COUNT” value [2] was 17.97 x10E3/uL. For the same compound, the LYMPHOCYTE [2] was 89.67%, the “MEAN CORPUSCULAR HEMOGLOBIN” value [2] was 24.4 pg and the “MEAN CORPUSCULAR HEMOGLOBIN CONCENTRATION” value [2] was 38.83 G/DL. For the same compound, the “MEAN CORPUSCULAR VOLUME” value [2] was 62.7 fL, the MONOCYTE [2] was 1.67% and the NEUTROPHIL [2] was 8.67%. The “NUCLEATED RED BLOOD CELLS” value [2] was 0 /100WBC, the “PLATELET COUNT” value [2] was 1276.67 x10E3/uL and the “ALANINE AMINOTRANSFERASE” value [2] was 53.67 u/L. For the same compound, the “ALKALINE PHOSPHATASE” value [2] was 355.33 u/L, the “ASPARTATE AMINOTRANSFERASE” value [2] was 109 u/L and the “BLOOD UREA NITROGEN” value [2] was 14.33 mg/dL. The “CARBON DIOXIDE” value [2] was 22.33 mmol/L, the CHLORIDE [2] was 104 MEQ/L and the CHOLESTEROL [2] was 67.67 mg/dL. For the same compound, the “CREATINE PHOSPHOKINASE” value [2] was 922.67 u/L, the CREATININE [2] was 0.19 mg/dL and the GLUCOSE [2] was 204 mg/dL. The “LACTATE DEHYDROGENASE” value [2] was 452.67 u/L, the LIPASE [2] was 10 u/L and the PHOSPHORUS [2] was 13.37 mg/dL. The POTASSIUM [2] was 5.82 MEQ/L, the SODIUM [2] was 147.33 MEQ/L and the “TOTAL BILIRUBIN” value [2] was 0.17 mg/dL. The “TOTAL PROTEIN” value [2] was 5.87 G/DL, the “URIC ACID” value [2] was 1.9 mg/dL and the “ABSOLUTE BASOPHIL” value [3] was 0 CELLS/uL. For the same compound, the “ABSOLUTE EOSINOPHIL” value [3] was 0 CELLS/uL, the “ABSOLUTE LYMPHOCYTE” value [3] was 15088.33 CELLS/uL and the “ABSOLUTE MONOCYTE” value [3] was 152.33 CELLS/uL. The “ABSOLUTE SEGMENTED NEUTROPHIL” value [3] was 1792.67 CELLS/uL, the BASOPHIL [3] was 0% and the EOSINOPHIL [3] was 0%. For the same compound, the “ERYTHROCYTE COUNT” value [3] was 5.64 x10E6/uL, the HEMATOCRIT [3] was 34.3% and the HEMOGLOBIN [3] was 13.5 G/DL. The “LEUKOCYTE COUNT” value [3] was 17.03 x10E3/uL, the LYMPHOCYTE [3] was 88.33% and the “MEAN CORPUSCULAR HEMOGLOBIN” value [3] was 23.93 pg. The “MEAN CORPUSCULAR HEMOGLOBIN CONCENTRATION” value [3] was 39.37 G/DL, the “MEAN CORPUSCULAR VOLUME” value [3] was 60.83 fL and the MONOCYTE [3] was 1%. For the same compound, the NEUTROPHIL [3] was 10.67%, the “NUCLEATED RED BLOOD CELLS” value [3] was 0 /100WBC and the “PLATELET COUNT” value [3] was 1189 x10E3/uL. The “ALANINE AMINOTRANSFERASE” value [3] was 58.33 u/L, the “ALKALINE PHOSPHATASE” value [3] was 429.33 u/L and the “ASPARTATE AMINOTRANSFERASE” value [3] was 79.33 u/L. For the same compound, the “BLOOD UREA NITROGEN” value [3] was 16.67 mg/dL, the “CARBON DIOXIDE” value [3] was 25 mmol/L and the CHLORIDE [3] was 106 MEQ/L. The CHOLESTEROL [3] was 72.33 mg/dL, the “CREATINE PHOSPHOKINASE” value [3] was 133.33 u/L and the CREATININE [3] was 0.2 mg/dL. For the same compound, the GLUCOSE [3] was 162.33 mg/dL, the “LACTATE DEHYDROGENASE” value [3] was 100 u/L and the LIPASE [3] was 10 u/L. For the same compound, the PHOSPHORUS [3] was 13.67 mg/dL, the POTASSIUM [3] was 6.24 MEQ/L and the SODIUM [3] was 150.03 MEQ/L. For the same compound, the “TOTAL BILIRUBIN” value [3] was 0.13 mg/dL, the “TOTAL PROTEIN” value [3] was 5.73 G/DL and the “URIC ACID” value [3] was 1.4 mg/dL.
